Experimental data taken from patent US20080119505A1, “Novel 6-Pyridylphenanthridines” (ALTANA Pharma AG, priority 2005, published 2008).

Biological target: T1, PDE4B2 (Homo sapiens, UniProt Q07343)
T1 construct: made in house; host or cells: SF21 insect cells (baculovirus; virus made in SF9 cells)
Assay: Inhibition of PDE4 activity (PDE4B2 [3H]cAMP SPA enzyme assay)
Format: biochemical
Conditions: recombinant PDE4B2 expressed in SF21 insect cells, 0.5 μM cAMP, read-out: −log IC50 (mol/l), Inhibition of the PDE4 activity (converted)
Procedure: The PDE4B2 (GB no. M97515) was a gift of Prof. M. Conti (Stanford University, USA). It was amplified from the original plasmid (pCMV5) via PCR with primers Rb9 (5′-[…]-3′) and Rb10 (5′-[…]-3′) and cloned into the pCR-Bac vector (Invitrogen, Groningen, NL).
The recombinant baculovirus was prepared by means of homologous recombination in SF9 insect cells. The expression plasmid was cotransfected with Bac-N-Blue (Invitrogen, Groningen, NL) or Baculo-Gold DNA (Pharmingen, Hamburg) using a standard protocol (Pharmingen, Hamburg). Wt virus-free recombinant virus supernatant was selected using plaque assay methods. After that, high-titre virus supernatant was prepared by amplifying 3 times. PDE was expressed in SF21 cells by infecting 2×10^6 cells/ml with an MOI (multiplicity of infection) between 1 and 10 in serum-free SF900 medium (Life Technologies, Paisley, UK). […]
The SF21 insect cells were resuspended, at a concentration of approx. 10^7 cells/ml, in ice-cold (4° C.) homogenization buffer (20 mM Tris, pH 8.2, containing the following additions: 140 mM NaCl, 3.8 mM KCl, 1 mM EGTA, 1 mM MgCl2, 10 mM β-mercaptoethanol, 2 mM benzamidine, 0.4 mM Pefablock, 10 μM leupeptin, 10 μM pepstatin A, 5 μM trypsin inhibitor) and disrupted by ultrasonication. […] The protein content was determined by the Bradford method (BioRad, Munich) using BSA as the standard. […]

T1 sequence (Q07343 1-564 isoform Q07343-2): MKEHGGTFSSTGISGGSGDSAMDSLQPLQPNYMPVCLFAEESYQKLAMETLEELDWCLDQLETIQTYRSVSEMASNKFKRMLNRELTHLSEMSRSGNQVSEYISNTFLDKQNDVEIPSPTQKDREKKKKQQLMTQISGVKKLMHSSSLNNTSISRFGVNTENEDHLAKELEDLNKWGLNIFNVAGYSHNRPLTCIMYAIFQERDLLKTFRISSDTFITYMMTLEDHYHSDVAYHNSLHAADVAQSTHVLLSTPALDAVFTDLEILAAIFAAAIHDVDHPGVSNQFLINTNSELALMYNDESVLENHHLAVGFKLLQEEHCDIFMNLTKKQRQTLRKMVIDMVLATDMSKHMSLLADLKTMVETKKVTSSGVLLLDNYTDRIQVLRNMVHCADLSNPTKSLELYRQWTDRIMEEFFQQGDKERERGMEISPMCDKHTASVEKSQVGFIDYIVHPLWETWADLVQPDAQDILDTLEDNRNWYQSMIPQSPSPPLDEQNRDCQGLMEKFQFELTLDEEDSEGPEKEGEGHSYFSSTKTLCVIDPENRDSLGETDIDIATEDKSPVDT

SMILES: CCOc1cc2c(cc1OC)C(c1ccc(OC)nc1OC)=N[C@@H]1CCCC[C@H]21 [Example 2, (4aR,10bR)-6-(2,6-Dimethoxy-pyridin-3-yl)-9-ethoxy-8-methoxy-1,2,3,4,4a,10b-hexahydro-phenanthridine]
- IC50: 3.24 nM
